Here are results for one compound from patent US11028095B2, “Spiro-lactam and bis-spiro-lactam NMDA receptor modulators and uses thereof” (Aptinyx Inc., priority 2016, dated 2021).

Data set [1] has as its system positive (hedonic) 50-kHz ultrasonic vocalizations (USVs). The experiment in a line: Positive Emotional Learning (PEL) test. Type of data set: in vivo. Conditions: rat, PO, dose 0.001-1 mg/kg, one hour after administration. The method, boiled down: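 Rats received test compound or vehicle (0.5% carboxymethyl cellulose in saline) 1 h before 3 min of experimenter-delivered rough-and-tumble play in alternating 15 s play and no-stimulation blocks. Frequency-modulated 50-kHz USVs during no-stimulation (CS) periods were counted; animals not habituated beforehand.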

Data set [2] in a line: Microsomal stability (Human). Type of data set: in vitro ADME. Particulars: human microsomes. As to the method:
(§1) Microsomal stability of disclosed compounds was investigated. The following table indicates the percent of compound remaining after 60 minutes.

The nature of data set [3]: Microsomal stability (Rat). The class given is in vitro ADME. Particulars: rat microsomes. On the procedure:
as §1

A further data set in a line: Plasma stability (Rat). Type of data set: in vitro ADME. As to the method: Plasma stability of disclosed compounds was investigated. The following table indicates the percent of compound remaining after 60 minutes.
Data set [4] has as its target T1, NMDAR2A expressing HEK cell membranes (Homo sapiens, UniProt Q05586+Q12879).
T1 construct: expressed in transfected cells; host or cells: HEK cells (membrane extract)
The experiment in a line: NMDAR agonist assay, [3H]MK-801 binding, NMDAR2A. The class given is biochemical. As to the method: (§2) (nonequilibrium conditions).
(§3) The baseline value was determined from the best fit curve of the DPM values modeled using the GraphPad program and the log(agonist) vs. response(three parameters) algorithm was then subtracted from all points in the dataset.

Data set [5] concerns the target T2, NMDAR2D expressing HEK cell membranes (Homo sapiens, UniProt O15399+Q05586).
T2 construct: expressed in transfected cells; host or cells: HEK cells (membrane extract)
As to the kind of experiment: NMDAR agonist assay, [3H]MK-801 binding, NMDAR2D. The class given is biochemical. On the procedure: as §2, §3

The next data set in a line: IV pharmacokinetics. The class given is in vivo. Conditions: rat, in vivo, Sprague Dawley rats, 2 mg/kg, normal saline. On the procedure:
Sprague Dawley rats were dosed intravenously using a normal saline formulation containing 2 mg/kg of the compounds identified in the below table. The table below summarizes the results of the IV pharmacokinetics.

Data set [6] relates to Sciatic nerve chronic constriction nerve injury. As to the kind of experiment: Bennett nerve injury assay (mechanical analgesia, paw withdrawal threshold). The class given is in vivo, Sprague Dawley rats. As to the method: The Bennett model of mechanical analgesia is used to assess the analgesic effects of compounds as measured by paw withdrawal threshold. Bennett G J, Xie Y K, “A peripheral mononeuropathy in rat that produces disorders of pain sensation like those seen in man,” Pain 33:87-107, 1988. […] Vehicle animals receive the surgery and then receive vehicle rather than test compound. Animals were tested 1 hr, 24 h and 1 wk post-test compound or vehicle administration.
Male 2-3 month old Sprague Dawley rats were used. Harlan was the supplier for all studies. Rats were housed in Lucite cages with aspen wood chip bedding, maintained on a 12:12 light:dark cycle (lights on at 5 AM), and given ad libitum access to Purina lab chow (USA) and tap water throughout the study.
Rats were anesthetized using inhaled isoflurane (2.5%). Sciatic nerve chronic constriction nerve injury surgery was performed as previously described (Bennett and Xie, 1988). An incision (˜1.5 cm in length) was made with a scalpel blade dorsally through skin on the right hind limb, parallel and posterior to femur. Using a small pointed hemostat, the biceps femoris and gluteus superficialis muscles were separated. Using curved blunt forceps, the common sciatic nerve was isolated and exposed. For the mechanical analgesia studies, the whole sciatic nerve was ligated. Using hemostats/forceps and chromic gut (5-0), the nerve was loosely ligated with a square knot; 3 ligatures, 1 mm apart were placed on the nerve. […] Testing occurred approximately 2 weeks post-surgery.
During testing, rats were acclimated to the surface of a suspended wire mesh grid (1 cm×1 cm, with the wire being 0.3 cm in diameter) for 15-20 min Starting from the smallest, each Von Frey filament was pressed perpendicularly to the plantar surface of the affected (ipsilateral) hind paw until slightly bent and then held for 6 second. If an obvious hind paw withdrawal or a flinching behavior immediately after the withdrawal of the filament was not observed, the next larger filament was used in the same manner. In case of a response, a lower filament was used. This was repeated until six responses were collected.
For all studies, animals were baselined prior to study start to test for allodynia (defined as a paw withdrawal threshold under 5). A subset of animals was tested with gabapentin (150 mg/kg, PO) to ensure at least 50% analgesia. Once it was confirmed animals were ready for study initiation, animals were balanced across groups. All study investigators were blind to treatment conditions. Animals were dosed with 0.1, 1 or 10 mg/kg of test compound via oral gavage (PO), control sets of animals were dosed with gabapentin (150 mg/kg, PO) or vehicle (0.5% Na-CMC in 0.9% sterile saline, PO). Testing occurred 1 h post-dosing with animals retested 24 hrs and 1 week post-dosing. The percent analgesia calculations for each animal were made using the following equation: % analgesia=[(log(x)−y)/((log (z)−y)]*100, where x=the paw withdrawal threshold for the drug-treated animal in grams, y=the average of the log(x) values for the vehicle treated group, and z=the paw withdrawal threshold for naïve animals in grams (historical value of 15 used). The results for Compound AD, where the percentage of analgesia is measured at 1 hour, 24 hours, and 1 week after compound administration are as follows: for 0.1 mg/kg dose: 37.8% at 1 h, 29.7% at 24 h, and 63.1% at 1 wk; for 1 mg/kg dose: 48.8% at 1 h, 20.6% at 24 h, and 19.8% at 1 wk; and for 10 mg/kg dose: 70.3% at 1 h, 38.8% at 24 h, and 11.3% at 1 wk.

Bounds are passed on as bounds.

T2 sequence (O15399 28-1336, other chains not shown): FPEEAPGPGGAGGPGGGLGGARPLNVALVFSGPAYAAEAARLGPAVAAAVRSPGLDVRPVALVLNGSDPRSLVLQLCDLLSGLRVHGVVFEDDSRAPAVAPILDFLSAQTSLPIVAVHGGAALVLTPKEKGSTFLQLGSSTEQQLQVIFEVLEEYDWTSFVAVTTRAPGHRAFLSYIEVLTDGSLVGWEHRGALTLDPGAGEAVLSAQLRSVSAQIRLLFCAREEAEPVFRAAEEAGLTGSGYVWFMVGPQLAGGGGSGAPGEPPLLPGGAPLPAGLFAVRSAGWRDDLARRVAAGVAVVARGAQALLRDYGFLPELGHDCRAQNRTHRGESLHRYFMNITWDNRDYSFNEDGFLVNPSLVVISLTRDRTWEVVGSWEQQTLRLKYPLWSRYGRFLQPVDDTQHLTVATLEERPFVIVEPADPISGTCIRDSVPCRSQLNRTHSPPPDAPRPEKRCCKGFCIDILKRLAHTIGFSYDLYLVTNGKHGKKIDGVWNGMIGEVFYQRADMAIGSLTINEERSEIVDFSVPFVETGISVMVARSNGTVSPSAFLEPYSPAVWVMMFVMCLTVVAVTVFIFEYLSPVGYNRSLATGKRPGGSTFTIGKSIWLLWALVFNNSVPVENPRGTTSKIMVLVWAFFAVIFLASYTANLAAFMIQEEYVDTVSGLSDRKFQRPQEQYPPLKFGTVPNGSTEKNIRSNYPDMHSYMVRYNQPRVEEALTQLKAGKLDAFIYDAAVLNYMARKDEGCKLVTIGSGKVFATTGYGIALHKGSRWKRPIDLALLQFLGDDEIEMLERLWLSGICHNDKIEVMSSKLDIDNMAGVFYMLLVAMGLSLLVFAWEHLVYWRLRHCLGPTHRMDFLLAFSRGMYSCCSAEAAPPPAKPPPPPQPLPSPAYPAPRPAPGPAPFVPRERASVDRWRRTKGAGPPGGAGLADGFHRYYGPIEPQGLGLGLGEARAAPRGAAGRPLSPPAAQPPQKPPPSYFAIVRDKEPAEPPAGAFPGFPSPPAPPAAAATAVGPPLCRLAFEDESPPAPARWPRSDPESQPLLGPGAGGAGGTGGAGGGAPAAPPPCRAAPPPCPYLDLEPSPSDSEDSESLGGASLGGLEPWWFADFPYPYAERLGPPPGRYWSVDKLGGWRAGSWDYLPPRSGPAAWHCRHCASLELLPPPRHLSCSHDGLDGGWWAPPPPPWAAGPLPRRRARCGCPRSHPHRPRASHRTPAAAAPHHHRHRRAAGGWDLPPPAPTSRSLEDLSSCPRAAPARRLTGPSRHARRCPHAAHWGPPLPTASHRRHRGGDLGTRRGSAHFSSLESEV
T1 sequence (Q12879 23-1464, other chains not shown): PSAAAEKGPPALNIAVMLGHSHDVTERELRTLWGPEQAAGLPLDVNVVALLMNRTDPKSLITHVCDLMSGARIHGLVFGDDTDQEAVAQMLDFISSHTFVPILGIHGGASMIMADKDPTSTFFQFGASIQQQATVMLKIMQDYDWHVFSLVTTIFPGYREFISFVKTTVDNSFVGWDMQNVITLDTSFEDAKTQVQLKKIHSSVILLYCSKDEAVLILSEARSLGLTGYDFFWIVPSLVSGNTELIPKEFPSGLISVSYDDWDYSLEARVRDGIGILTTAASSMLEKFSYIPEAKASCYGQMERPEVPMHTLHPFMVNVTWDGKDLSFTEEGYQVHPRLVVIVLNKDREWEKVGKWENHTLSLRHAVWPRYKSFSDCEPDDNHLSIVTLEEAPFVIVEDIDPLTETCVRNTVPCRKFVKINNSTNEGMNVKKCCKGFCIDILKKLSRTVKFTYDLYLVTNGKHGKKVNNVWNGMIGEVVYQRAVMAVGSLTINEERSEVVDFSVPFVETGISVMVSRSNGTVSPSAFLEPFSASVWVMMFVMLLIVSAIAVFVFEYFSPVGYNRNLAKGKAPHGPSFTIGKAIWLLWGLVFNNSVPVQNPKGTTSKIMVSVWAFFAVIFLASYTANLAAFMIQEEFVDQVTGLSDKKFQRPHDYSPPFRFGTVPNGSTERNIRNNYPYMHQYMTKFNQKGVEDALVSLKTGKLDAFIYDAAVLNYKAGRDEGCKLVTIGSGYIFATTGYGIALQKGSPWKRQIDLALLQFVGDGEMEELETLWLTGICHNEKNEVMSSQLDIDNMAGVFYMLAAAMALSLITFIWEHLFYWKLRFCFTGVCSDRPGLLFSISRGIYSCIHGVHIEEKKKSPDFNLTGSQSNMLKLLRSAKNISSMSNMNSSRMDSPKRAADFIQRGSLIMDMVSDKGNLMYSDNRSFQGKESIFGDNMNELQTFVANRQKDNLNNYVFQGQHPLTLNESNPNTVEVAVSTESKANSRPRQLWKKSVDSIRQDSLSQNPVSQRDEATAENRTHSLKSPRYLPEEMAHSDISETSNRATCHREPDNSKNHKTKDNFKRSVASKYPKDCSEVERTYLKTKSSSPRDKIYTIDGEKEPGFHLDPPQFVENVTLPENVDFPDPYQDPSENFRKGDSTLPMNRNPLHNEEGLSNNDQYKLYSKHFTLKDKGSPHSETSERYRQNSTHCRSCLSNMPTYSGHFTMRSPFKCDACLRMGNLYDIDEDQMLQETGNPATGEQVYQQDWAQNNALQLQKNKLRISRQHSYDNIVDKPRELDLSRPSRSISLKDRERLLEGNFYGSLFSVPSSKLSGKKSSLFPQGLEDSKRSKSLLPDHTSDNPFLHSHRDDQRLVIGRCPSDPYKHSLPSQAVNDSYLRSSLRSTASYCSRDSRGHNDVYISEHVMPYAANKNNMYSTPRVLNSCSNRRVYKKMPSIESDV

For orientation: EC50 means the concentration needed to bring the measured effect to its halfway point. As a reminder, the AUC(0-t) is the area under the concentration-time curve up to a stated or last time point. Lower therefore signals less exposure. Broadly, the clearance is a measure of how efficiently the substance is removed, as volume per time. A lower clearance goes with inefficient removal. One may read the half-life as the time needed for the level to fall by half in the phase considered. Low values mean rapid decline, high ones slow decline. As to `CC(C)CN1[C@@]2(CC[C@@]13CNC3=O)CNC2=O` [Compound AD, 5-isobutyl-2,5,8-triazadispiro[3.1.36.24]undecane-1,7-dione], the “Max Effect (mean number of 50 kHz USVs per 15 seconds)” value in data set [1] is “** (**: 11-16.9)”. Besides, in data set [2], the “Microsomal (Human): percent of compound remaining after 60 minutes” value came out at 100%. Moreover, the “Microsomal (Rat): percent of compound remaining after 60 minutes” value in data set [3] is reported as 100%. In the data set “Plasma stability (Rat)”, the “Plasma (Rat): percent of compound remaining after 60 minutes” value came to 88%. Besides, the EC50 in data set [4] (NMDAR2A: log EC50, 50 μM glutamate, [3H]MK-801 binding) was less than 1 nM; in data set [5] (NMDAR2D: log EC50, 50 μM glutamate, [3H]MK-801 binding) it was more than 100 nM. The Emax in data set [4] (read-out: NMDAR2A: % maximal [3H]MK-801 binding relative to 1 mM glycine, 50 μM glutamate, relative to 1 mM glycine) is less than 100%; in data set [5] (read-out: NMDAR2D: % maximal [3H]MK-801 binding relative to 1 mM glycine), 0%. In “IV pharmacokinetics”, this compound came in with an AUC(0-t) of 4710 ng·h/mL. In addition, the clearance in “IV pharmacokinetics” is 7.01 mL/min/kg. In “IV pharmacokinetics”, this compound showed a half-life of 2.27 h. Also, the C0 in the data set “IV pharmacokinetics” (read-out: C0) amounted to 2800 ng/mL. In addition, in “IV pharmacokinetics” (read-out: Vss), the Vd turned out to be 0.92 L/kg. The percentage of analgesia in data set [6] (0.1 mg/kg PO, 1 wk after administration) is 63.1%; in data set [6] (0.1 mg/kg PO, 1 h after administration), 37.8%; in data set [6] (0.1 mg/kg PO, 24 h after administration), 29.7%; in data set [6] (1 mg/kg PO, 1 wk after administration), 19.8%; in data set [6] (1 mg/kg PO, 1 h after administration), 48.8%; in data set [6] (1 mg/kg PO, 24 h after administration) it was 20.6%. Besides, the percentage of analgesia turned out to be 11.3% in data set [6] (10 mg/kg PO, 1 wk after administration); 70.3% in data set [6] (10 mg/kg PO, 1 h after administration); 38.8% in data set [6] (10 mg/kg PO, 24 h after administration).
